Test results: ChEMBL document CHEMBL6177954, “Identification of imidazo[1,2-a]pyridine-3-amine as a novel drug-like scaffold for efficious ferroptosis inhibition in vivo” (Eur J Med Chem, 2025)
Calls of active or inactive are those of the source. The rule behind the calls is not given here.

How the values were obtained:
[1] = test system: SH-SY5Y; experiment: Anti-ferroptosis activity against RSL3-induced ferroptosis in human SH-SY5Y cells assessed as reversal of ferroptosis by measuring cell viability measured after 48 hrs by MTT assay; type: functional, cell-based
[2] = Metal chelating activity assessed as compound-Fe2+ complex formation by UV-Vis absorption spectra analysis
[3] = test system: SH-SY5Y; experiment: Prevention of STS-induced apoptosis in human SH-SY5Y cells assessed as cell viability at 5 uM measured after 48 hrs by MTT assay; type: functional, cell-based
[4] = Plasma stability in rat plasma assessed as half life; type: ADME, cell-free
[5] = Metal chelating activity assessed as compound-Fe3+ complex formation by UV-Vis absorption spectra analysis
[6] = test system: SH-SY5Y; experiment: Anti-ferroptotic activity against RSL3 induced human SH-SY5Y cells inhibition of RSL3 induced in LPO accumulation at 1.5 uM measured after 16 hrs by DCFH-DA based confocal laser scanning microscopic (CLSM) imaging analysis; type: functional, cell-based
[7] = test system: SH-SY5Y; experiment: Anti-ferroptotic activity against RSL3 induced human SH-SY5Y cells inhibition of RSL3 induced in LPO accumulation at 1.5 uM measured after 16 hrs by BODIPY581/591 based flow cytometric analysis; type: functional, cell-based
[8] = Antioxidant activity assessed as DPPH radical scavenging activity measured after 30 mins in dark by (DPPH) bleaching assay; type: functional
[9] = Metabolic stability in rat liver homogenate assessed as recovery measured after 12 hrs; type: ADME, tissue-based; details: read-out: Drug recovery
[10] = test system: SH-SY5Y; experiment: Anti-ferroptotic activity against RSL3 induced human SH-SY5Y cells inhibition of RSL3 induced in MDA level at 1.5 uM measured after 16 hrs by lipid peroxidation MDA assay; type: functional, cell-based
[11] = test system: HT-1080; experiment: Prevention of RSL3-induced ferroptosis morphological changes in human HT-1080 cells assessed as shrinkage, swelling, and membrane rupture measured up to 48 hrs; type: functional, cell-based
[12] = Plasma stability in human plasma assessed as recovery measured after 12 hrs; type: ADME, cell-free; details: read-out: Drug recovery
[13] = test system: OS-RC-2; experiment: Anti-ferroptosis activity against RSL3-induced ferroptosis in human OS-RC-2 cells assessed as reversal of ferroptosis by measuring cell viability measured after 48 hrs by MTT assay; type: functional, cell-based
[14] = test system: L02; experiment: Cytotoxicity against human LO2 cells at 30 uM measured after 48 hrs incubation by MTT assay; type: toxicity, cell-based; details: l02, 48 h
[15] = test system: SH-SY5Y; experiment: Prevention of TSZ-induced necroptosis in human SH-SY5Y cells assessed as cell viability at 5 uM measured after 48 hrs by MTT assay; type: functional, cell-based
[16] = Free radical trapping antioxidant activity in di-tert-undecyl hyponitrite (DTUN) trigged STY-BODIPY-embedded egg phosphatidylcholine liposomes assessed as inhibition of phospholipid peroxidation by measuring inhibition rate constant of STY-BODIPY at 1 uM by fluorescence-enabled inhibited autoxidation method (FENIX); type: functional
[17] = Plasma stability in human plasma assessed as half life; type: ADME, cell-free
[18] = test system: SH-SY5Y; experiment: Prevention of RSL3-induced ferroptosis in human SH-SY5Y cells assessed as cell viability at 5 uM measured after 48 hrs by MTT assay; type: functional, cell-based
[19] = Cytotoxicity against human HUVEC at 30 uM measured after 48 hrs incubation by MTT assay; type: toxicity, cell-based; details: huve
[20] = Plasma stability in rat plasma assessed as recovery measured after 12 hrs; type: ADME, cell-free; details: read-out: Drug recovery
[21] = test system: HT-1080; experiment: Anti-ferroptosis activity against RSL3-induced ferroptosis in human HT-1080 cells assessed as reversal of ferroptosis by measuring cell viability measured after 48 hrs by MTT assay; type: functional, cell-based
[22] = Metabolic stability in rat liver homogenate assessed as half life; type: ADME, tissue-based
[23] = Toxicity in Balb/c mouse assessed as histopathological changes in heart at 20 mg/kg, iv (tail vein) measured for 24 hrs by H and E staining based analysis; type: organism-based; details: in vivo
[24] = test system: Mus musculus; experiment: Protection against middle cerebral artery occlusion (MCAO)-induced Balb/c mouse assessed as reduction in MDA level in lesioned hemisphere at 20 mg/kg, iv (tail vein) measured for 24 hrs by lipid peroxidation MDA assay; type: functional, organism-based
[25] = test system: Mus musculus; experiment: Protection against middle cerebral artery occlusion (MCAO)-induced Balb/c mouse assessed as reduction in infarct volume in brain at 20 mg/kg, iv (tail vein) measured for 24 hrs by TTC staining (reference value: 50.08%); type: functional; set-up: scale not given: the % may be the effect or the level left
[26] = Toxicity in Balb/c mouse assessed as histopathological changes in lung at 20 mg/kg, iv (tail vein) measured for 24 hrs by H and E staining based analysis; type: organism-based; details: in vivo
[27] = test system: Mus musculus; experiment: Protection against middle cerebral artery occlusion (MCAO)-induced Balb/c mouse assessed as reduction in PTGS2 mRNA level in lesioned hemisphere at 20 mg/kg, iv (tail vein) measured for 24 hrs by qRT-PCR analysis; type: functional, organism-based
[28] = Toxicity in Balb/c mouse assessed as histopathological changes in kidney at 20 mg/kg, iv (tail vein) measured for 24 hrs by H and E staining based analysis; type: organism-based; details: in vivo
[29] = Toxicity in Balb/c mouse assessed as histopathological changes in spleen at 20 mg/kg, iv (tail vein) measured for 24 hrs by H and E staining based analysis; type: organism-based; details: in vivo
[30] = Toxicity in Balb/c mouse assessed as histopathological changes in liver at 20 mg/kg, iv (tail vein) measured for 24 hrs by H and E staining based analysis; type: organism-based; details: in vivo

FC(F)(F)c1ccccc1-c1nc2ccc3ccccc3n2c1NC1CCCCC1
IC50 [1]: 104 nM

c1ccc2c(c1)ccc1nc(-c3ccsc3)c(NC3CCCCC3)n12
IC50 [1]: 426 nM

Cc1cn2cccc(-c3ccccc3N)c2n1
IC50 [1]: > 100000 nM

COc1ccc(Nc2c(-c3ccoc3)nc3ccccn23)cc1Cl
Activity [2]: inactive
Activity [3]: inactive
half-life [4]: > 12 h
Activity [5]: inactive
Activity [6]: Active
Activity [7]: Active
Activity [8]: Dose-dependent-effect
remaining at 12 h [9]: 95.8%
Activity [10]: Active
Activity [11]: Active
remaining at 12 h [12]: 100%
Activity [13]: Active
Activity [14]: Non-toxic
Activity [15]: inactive
Ki [16]: 1.6 10^4/M/s
half-life [17]: > 12 h
IC50 [1]: 99 nM
Activity [18]: Active
Activity [19]: Non-toxic
remaining at 12 h [20]: 100%
Activity [21]: Active
half-life [22]: > 12 h

COc1ccc(Nc2c(-c3cc(Cl)cc(Cl)c3)nc3ccc(N4CCN(C)CC4)cn23)cc1Cl
IC50 [1]: 84 nM

Oc1ccccc1-c1nc2ccccn2c1Cc1ccccc1
IC50 [1]: 5210 nM

Clc1cccc(CNc2c(-c3cccc(Cl)c3)nc3ccc4ccccc4n23)c1
IC50 [1]: 287 nM

COc1ccc(-c2nc3ccccn3c2NC23C[C@H]4C[C@@H](C2)C[C@@H](C3)C4)cc1
IC50 [1]: 1870 nM

COc1ccc(Nc2c(-c3csc4ccccc34)nc3ccccn23)cc1Cl
IC50 [1]: 195 nM

COc1ccc(Nc2c(C3CCCCC3)nc3ccc(F)cn23)cc1Cl
IC50 [1]: 80 nM

CCOC(=O)CNc1c(-c2ccccc2)nc2ccccn12
IC50 [1]: 2930 nM

Clc1cccc(CNc2c(-c3cccc(Cl)c3)nc3ccccn23)c1
IC50 [1]: 181 nM

Clc1cccc(-c2nc3ccccn3c2NC23C[C@H]4C[C@@H](C2)C[C@@H](C3)C4)c1
IC50 [1]: > 30000 nM

Cc1ccc2nc(-c3cccc(Cl)c3)c(NC(C)(C)C)n2c1
IC50 [1]: > 10000 nM

Clc1cc(Cl)cc(-c2nc3ccc4ccccc4n3c2NC2CCCCC2)c1
IC50 [1]: 920 nM

c1ccn2c(NC34C[C@H]5C[C@@H](C3)C[C@@H](C4)C5)c(C3CCCCC3)nc2c1
IC50 [1]: > 10000 nM

COc1ccc(Nc2c(-c3ccccc3Cl)nc3ccc4ccccc4n23)cc1Cl
IC50 [1]: 65 nM

FC(F)(F)c1ccccc1-c1nc2ccccn2c1NCc1ccco1
IC50 [1]: 412 nM

COc1ccc(Nc2c(-c3ccsc3)nc3ccccn23)cc1Cl
IC50 [1]: 476 nM

Clc1cc(Cl)cc(CNc2c(-c3ccoc3)nc3ccccn23)c1
IC50 [1]: 1560 nM

Clc1cc(Cl)cc(CNc2c(-c3cc(Cl)cc(Cl)c3)nc3ccc4ccccc4n23)c1
IC50 [1]: 766 nM

Clc1cc(Cl)cc(CNc2c(-c3cc(Cl)cc(Cl)c3)nc3ccccn23)c1
IC50 [1]: 1930 nM

COc1ccc(Nc2c(-c3cc(Cl)cc(Cl)c3)nc3cc(COCc4cccc(Cl)c4)ccn23)cc1Cl
IC50 [1]: 802 nM

Clc1cc(Cl)cc(-c2nc3ccccn3c2NC2CCCCC2)c1
IC50 [1]: 625 nM

COc1ccc(-c2nc3ccccn3c2NC2CCCCC2)cc1
IC50 [1]: > 10000 nM

COc1ccc(-c2nc3ccccn3c2NC(C)(C)C)cc1
IC50 [1]: > 30000 nM

Cc1ccccc1-c1cn2ccccc2n1
IC50 [1]: > 100000 nM

Cc1ccc2nc(-c3ccc(N4CCOCC4)cc3)c(NC3CCCCC3)n2c1
IC50 [1]: > 10000 nM

COc1ccc(Nc2c(C3CCCCC3)nc3ccccn23)cc1Cl
Activity [23]: Non-toxic
Activity [2]: inactive
Activity [3]: inactive
Activity [24]: Active
half-life [4]: > 12 h
Activity [5]: inactive
Activity [6]: Active
Activity [25]: 25.28%
Activity [7]: Active
Activity [8]: Dose-dependent-effect
remaining at 12 h [9]: 91.1%
Activity [10]: Active
Activity [11]: Active
Activity [26]: Non-toxic
Activity [27]: Active
remaining at 12 h [12]: 100%
Activity [13]: Active
Activity [28]: Non-toxic
Activity [14]: Non-toxic
Activity [15]: inactive
Ki [16]: 2 10^4/M/s
half-life [17]: > 12 h
Activity [29]: Non-toxic
IC50 [1]: 97 nM
Activity [30]: Non-toxic
Activity [18]: Active
Activity [19]: Non-toxic
remaining at 12 h [20]: 100%
Activity [21]: Active
half-life [22]: > 12 h

Cc1cn2cccc(-c3ccccc3O)c2n1
IC50 [1]: > 30000 nM

Oc1ccccc1-c1cn2ccccc2n1
IC50 [1]: 9880 nM

CC(C)(C)Nc1c(-c2ccoc2)nc2ccccn12
IC50 [1]: > 10000 nM

Clc1cc(Cl)cc(CNc2c(-c3cscn3)nc3ccccn23)c1
IC50 [1]: 2030 nM

c1coc(CNc2c(-c3cscn3)nc3ccccn23)c1
IC50 [1]: 2640 nM

CCOC(=O)c1ccc(NC2CCCCC2)c(N)c1
half-life [4]: 2.1 h
remaining at 12 h [9]: 7.1%
remaining at 12 h [12]: 94.1%
half-life [17]: > 12 h
IC50 [1]: 20 nM
Activity [18]: Active
remaining at 12 h [20]: 0%
half-life [22]: 0.67 h

COc1ccc(Nc2c(-c3c(Cl)cc(Cl)cc3Cl)nc3ccc4ccccc4n23)cc1Cl
half-life [4]: < 0.08 h
remaining at 12 h [9]: 32.2%
remaining at 12 h [12]: 47.9%
half-life [17]: < 0.08 h
IC50 [1]: 22 nM
remaining at 12 h [20]: 42.3%
half-life [22]: < 0.08 h

Nc1ccccc1-c1cn2ccccc2n1
IC50 [1]: > 10000 nM

Oc1ccc(-c2cn3ccccc3n2)c(O)c1
IC50 [1]: 2380 nM

c1ccn2c(NC34C[C@H]5C[C@@H](C3)C[C@@H](C4)C5)c(-c3cscn3)nc2c1
IC50 [1]: > 30000 nM

CCOC(=O)CNc1c(-c2ccc(OC)cc2)nc2ccccn12
IC50 [1]: 3940 nM

Oc1ccccc1-c1cccn2c(Cc3ccccc3)c(-c3ccccc3)nc12
IC50 [1]: > 30000 nM

CC(=O)N(O)CCCCCNC(=O)CCC(=O)N(O)CCCCCNC(=O)CCC(=O)N(O)CCCCCN
Activity [2]: Active
Activity [5]: Active
